Measured values reported in ChEMBL document CHEMBL4689842, “EUbOPEN Chemogenomics Library wave 1” (2021).

What was measured:
Assay type in all cases: toxicity, cell-based
HEK-293T = experiment: Incucyte cell viability with HEK293T; details: human, 10 µM, compound concentration 10 uM
U2OS = experiment: Incucyte cell viability with U2OS; details: human, 10 µM, compound concentration 10 uM
Fibroblast = experiment: Incucyte cell viability with human fibroblast; details: 10 µM, compound concentration 10 uM
[1] = 0 h, replicate number 1, timepoint 0 hours
[2] = 6 h, replicate number 1, timepoint 6 hours
[3] = 6 h, replicate number 2, timepoint 6 hours
[4] = 12 h, replicate number 1, timepoint 12 hours
[5] = 12 h, replicate number 2, timepoint 12 hours
[6] = 18 h, replicate number 1, timepoint 18 hours
[7] = 24 h, replicate number 1, timepoint 24 hours
[8] = 24 h, replicate number 2, timepoint 24 hours
[9] = 18 h, replicate number 2, timepoint 18 hours
[10] = 0 h, replicate number 2, timepoint 0 hours
Note: filed as whole numbers so only -1 and 0 and 1 occur.

`CN(C(=O)Cc1ccc(Cl)c(Cl)c1)C(CN1CCCC1)c1cccc(OCC(=O)O)c1.Cl` (centres undefined) was tested, and the “Growth Rate” value (HEK-293T; [1]) was 0, the “Growth Rate” value (HEK-293T; [2]) was 1 and the “Growth Rate” value (HEK-293T; [3]) was 0. The “Growth Rate” value (HEK-293T; [4]) was 1, the “Growth Rate” value (HEK-293T; [5]) was 0 and the “Growth Rate” value (HEK-293T; [6]) was 1. For the same compound, the “Growth Rate” value (HEK-293T; [7]) was 1, the “Growth Rate” value (HEK-293T; [8]) was 0 and the “Growth Rate” value (U2OS; [1]) was 0. The “Growth Rate” value (U2OS; [3]) was 1, the “Growth Rate” value (U2OS; [4]) was 0 and the “Growth Rate” value (U2OS; [5]) was 1. For the same compound, the “Growth Rate” value (U2OS; [6]) was 0, the “Growth Rate” value (U2OS; [9]) was 1 and the “Growth Rate” value (U2OS; [7]) was 1. For the same compound, the “Growth Rate” value (Fibroblast; [1]) was 0, the “Growth Rate” value (Fibroblast; [2]) was 0 and the “Growth Rate” value (Fibroblast; [4]) was 0. For the same compound, the “Growth Rate” value (Fibroblast; [5]) was 1, the “Growth Rate” value (Fibroblast; [6]) was 0 and the “Growth Rate” value (Fibroblast; [7]) was 0.
For `CCCCc1nc2ccc(NC(=O)NC3CCCCC3)cc2n1Cc1ccc(-c2ccccc2C(=O)O)cc1`, the “Growth Rate” value (HEK-293T; [1]) was 1, the “Growth Rate” value (HEK-293T; [10]) was 0 and the “Growth Rate” value (HEK-293T; [2]) was 0. For the same compound, the “Growth Rate” value (HEK-293T; [3]) was 1, the “Growth Rate” value (HEK-293T; [4]) was 0 and the “Growth Rate” value (HEK-293T; [5]) was 1. For the same compound, the “Growth Rate” value (HEK-293T; [6]) was 0, the “Growth Rate” value (HEK-293T; [9]) was 1 and the “Growth Rate” value (HEK-293T; [7]) was 0. The “Growth Rate” value (U2OS; [1]) was 0, the “Growth Rate” value (U2OS; [2]) was 0 and the “Growth Rate” value (U2OS; [4]) was 0. The “Growth Rate” value (U2OS; [5]) was 1, the “Growth Rate” value (U2OS; [6]) was 0 and the “Growth Rate” value (U2OS; [9]) was 1. For the same compound, the “Growth Rate” value (U2OS; [7]) was 0, the “Growth Rate” value (U2OS; [8]) was 1 and the “Growth Rate” value (Fibroblast; [1]) was 0. For the same compound, the “Growth Rate” value (Fibroblast; [2]) was 1, the “Growth Rate” value (Fibroblast; [4]) was 0 and the “Growth Rate” value (Fibroblast; [6]) was 1. The “Growth Rate” value (Fibroblast; [7]) was 1.
In the case of `CN(CCOc1ccc(C[C@H](Nc2ccccc2C(=O)c2ccccc2)C(=O)O)cc1)c1ccccn1.O`, the “Growth Rate” value (HEK-293T; [1]) is reported as 1, the “Growth Rate” value (HEK-293T; [10]) is reported as 0 and the “Growth Rate” value (HEK-293T; [2]) is reported as 0. For the same compound, the “Growth Rate” value (HEK-293T; [3]) was 1, the “Growth Rate” value (HEK-293T; [4]) was 1 and the “Growth Rate” value (HEK-293T; [6]) was 1. For the same compound, the “Growth Rate” value (HEK-293T; [7]) was 1, the “Growth Rate” value (HEK-293T; [8]) was 0 and the “Growth Rate” value (U2OS; [1]) was 0. The “Growth Rate” value (U2OS; [3]) was 0, the “Growth Rate” value (U2OS; [4]) was 0 and the “Growth Rate” value (U2OS; [6]) was 0. The “Growth Rate” value (U2OS; [7]) was 1, the “Growth Rate” value (U2OS; [8]) was 0 and the “Growth Rate” value (Fibroblast; [1]) was 0. The “Growth Rate” value (Fibroblast; [2]) was 1, the “Growth Rate” value (Fibroblast; [3]) was 0 and the “Growth Rate” value (Fibroblast; [5]) was 0. The “Growth Rate” value (Fibroblast; [9]) was 0, the “Growth Rate” value (Fibroblast; [7]) was 1 and the “Growth Rate” value (Fibroblast; [8]) was 0.
In the case of `C=CCN1C[C@H](C)N([C@H](c2ccc(C(=O)N(CC)CC)cc2)c2cccc(O)c2)C[C@H]1C`, the “Growth Rate” value (HEK-293T; [1]) is reported as 1, the “Growth Rate” value (HEK-293T; [10]) is reported as 0 and the “Growth Rate” value (HEK-293T; [2]) is reported as 0. The “Growth Rate” value (HEK-293T; [4]) was 0, the “Growth Rate” value (HEK-293T; [6]) was 0 and the “Growth Rate” value (HEK-293T; [7]) was 0. For the same compound, the “Growth Rate” value (U2OS; [1]) was 0, the “Growth Rate” value (U2OS; [3]) was 1 and the “Growth Rate” value (U2OS; [5]) was 1. For the same compound, the “Growth Rate” value (U2OS; [6]) was 1, the “Growth Rate” value (U2OS; [7]) was 1 and the “Growth Rate” value (Fibroblast; [1]) was 0. The “Growth Rate” value (Fibroblast; [2]) was 0, the “Growth Rate” value (Fibroblast; [4]) was 0 and the “Growth Rate” value (Fibroblast; [6]) was 0. The “Growth Rate” value (Fibroblast; [7]) was 1 and the “Growth Rate” value (Fibroblast; [8]) was 0.
For `Cc1nc(C#Cc2ccnc(Cl)c2)c(C)n1-c1ccc(OC(F)(F)F)cc1`, the “Growth Rate” value (HEK-293T; [1]) was 0, the “Growth Rate” value (HEK-293T; [2]) was 0 and the “Growth Rate” value (HEK-293T; [4]) was 0. For the same compound, the “Growth Rate” value (HEK-293T; [6]) was 0, the “Growth Rate” value (HEK-293T; [7]) was 0 and the “Growth Rate” value (U2OS; [1]) was 0. The “Growth Rate” value (U2OS; [4]) was 1, the “Growth Rate” value (U2OS; [6]) was 1 and the “Growth Rate” value (U2OS; [7]) was 1. The “Growth Rate” value (Fibroblast; [1]) was 1, the “Growth Rate” value (Fibroblast; [10]) was 0 and the “Growth Rate” value (Fibroblast; [2]) was 1. The “Growth Rate” value (Fibroblast; [3]) was 0, the “Growth Rate” value (Fibroblast; [4]) was 0 and the “Growth Rate” value (Fibroblast; [6]) was 1. The “Growth Rate” value (Fibroblast; [9]) was 0, the “Growth Rate” value (Fibroblast; [7]) was 1 and the “Growth Rate” value (Fibroblast; [8]) was 0.
`Cc1cc(SCc2sc(-c3ccc(C(F)(F)F)c(F)c3)nc2C)ccc1OCC(=O)O` was tested, and the “Growth Rate” value (HEK-293T; [1]) was 0, the “Growth Rate” value (HEK-293T; [2]) was 1 and the “Growth Rate” value (HEK-293T; [4]) was 1. The “Growth Rate” value (HEK-293T; [5]) was 0, the “Growth Rate” value (HEK-293T; [6]) was 0 and the “Growth Rate” value (HEK-293T; [7]) was 0. For the same compound, the “Growth Rate” value (U2OS; [1]) was 0, the “Growth Rate” value (U2OS; [3]) was 1 and the “Growth Rate” value (U2OS; [4]) was 1. For the same compound, the “Growth Rate” value (U2OS; [6]) was 1, the “Growth Rate” value (U2OS; [7]) was 1 and the “Growth Rate” value (Fibroblast; [1]) was 0. The “Growth Rate” value (Fibroblast; [2]) was 1, the “Growth Rate” value (Fibroblast; [4]) was 1 and the “Growth Rate” value (Fibroblast; [5]) was 0. The “Growth Rate” value (Fibroblast; [6]) was 1, the “Growth Rate” value (Fibroblast; [7]) was 1 and the “Growth Rate” value (Fibroblast; [8]) was 0.
For `O=C(O)CC1CCC2(CC1)CCN(c1cc(OC(F)(F)F)ccc1Cl)CC2`, the “Growth Rate” value (HEK-293T; [1]) was 0, the “Growth Rate” value (HEK-293T; [2]) was 1 and the “Growth Rate” value (HEK-293T; [4]) was 0. For the same compound, the “Growth Rate” value (HEK-293T; [5]) was 1, the “Growth Rate” value (HEK-293T; [6]) was 0 and the “Growth Rate” value (HEK-293T; [9]) was 1. For the same compound, the “Growth Rate” value (HEK-293T; [7]) was 0, the “Growth Rate” value (HEK-293T; [8]) was 1 and the “Growth Rate” value (U2OS; [1]) was 1. For the same compound, the “Growth Rate” value (U2OS; [10]) was 0, the “Growth Rate” value (U2OS; [3]) was 1 and the “Growth Rate” value (U2OS; [4]) was 1. The “Growth Rate” value (U2OS; [6]) was 1, the “Growth Rate” value (U2OS; [7]) was 1 and the “Growth Rate” value (Fibroblast; [1]) was 0. For the same compound, the “Growth Rate” value (Fibroblast; [2]) was 1, the “Growth Rate” value (Fibroblast; [6]) was 1 and the “Growth Rate” value (Fibroblast; [7]) was 1.
In the case of `Cc1cc(C)cc(C(=O)N(C)[C@H](Cc2ccc(-c3ccccc3)cc2)C(=O)N[C@@H](Cc2c[nH]c3ccccc23)C(=O)O)c1`, the “Growth Rate” value (HEK-293T; [1]) is reported as 1, the “Growth Rate” value (HEK-293T; [10]) is reported as 0 and the “Growth Rate” value (HEK-293T; [2]) is reported as 0. The “Growth Rate” value (HEK-293T; [4]) was 0, the “Growth Rate” value (HEK-293T; [6]) was 0 and the “Growth Rate” value (HEK-293T; [7]) was 0. The “Growth Rate” value (U2OS; [10]) was 0, the “Growth Rate” value (U2OS; [2]) was 0 and the “Growth Rate” value (U2OS; [4]) was 0. The “Growth Rate” value (U2OS; [5]) was 1, the “Growth Rate” value (U2OS; [6]) was 0 and the “Growth Rate” value (U2OS; [9]) was 1. For the same compound, the “Growth Rate” value (U2OS; [7]) was 0, the “Growth Rate” value (U2OS; [8]) was 1 and the “Growth Rate” value (Fibroblast; [1]) was 0. The “Growth Rate” value (Fibroblast; [3]) was 0, the “Growth Rate” value (Fibroblast; [5]) was 1 and the “Growth Rate” value (Fibroblast; [9]) was 1. The “Growth Rate” value (Fibroblast; [8]) was 1.
